According to patent publication US12264156B2, “Compounds and pharmaceutical compositions thereof for the treatment of diseases” (GALAPAGOS NV, priority 2018, dated 2025):

Legend:
[1] = test system: LPS-induced TNFα in monocyte-derived macrophages (MdM); assay: MdM assay: LPS-triggered TNFα (ELISA); type: cell-based, human; details: Homo sapiens, Macrophage, 20 h, monocyte-derived macrophages, LPS 200 ng/mL, supernatant after 20 h; read-out: TNFα EC50
Procedure, shortened: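 Human monocyte-derived macrophages from CD14+ bead-selected buffy-coat PBMCs, used on day 10, pre-treated with compound for 1 h at 37 °C (0.2% DMSO), then stimulated with 200 ng/mL LPS. Supernatant taken after 20 h for TNFα sandwich ELISA (IL-10 at 2 h).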

[2] = test system: LPS-induced TNFα in monocytes; assay: Monocytes assay: LPS-triggered TNFα (ELISA); type: cell-based, human; details: Homo sapiens, Monocyte, 4 h, LPS 200 ng/mL, supernatant after 4 h
Procedure, shortened: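 Human CD14+ monocytes from buffy-coat PBMCs (magnetic bead selection) were seeded at 100 000 cells/well and pretreated with compound for 1 h at 37° C (0.2% DMSO). They were then stimulated with 200 ng/mL LPS for 4 h, and supernatant TNFα was measured by chemiluminescent sandwich ELISA as percent inhibition.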

SMILES | EC50 [1] [nM] | EC50 [2] [nM]
COc1cc(-c2cnc3cc(OCCN(C)C)ccn23)cc(OC(F)F)c1C(=O)NC1CC1 [Cpd 6, N-cyclopropyl-2-(difluoromethoxy)-4-[7-[2-(dimethylamino)ethoxy]imidazo[1,2-a]pyridin-3-yl]-6-methoxy-benzamide] | 100 to 1000 | 100 to 1000
COc1cc(-c2cnc3cc(OC[C@H]4COCCO4)ccn23)cc2c1C(=O)NCC2 [compound 242, 6-[7-[[(2R)-1,4-dioxan-2-yl]methoxy]imidazo[1,2-a]pyridin-3-yl]-8-methoxy-3,4-dihydro-2H-isoquinolin-1-one] | 100 to 1000 | 100 to 1000
COc1cc(-c2cnc3cc(OCCN4CCOC[C@@H]4C)ccn23)cc2c1C(=O)N(CC(F)(F)F)CC2 [Cpd 257, 8-methoxy-6-[7-[2-[(3S)-3-methylmorpholin-4-yl]ethoxy]imidazo[1,2-a]pyridin-3-yl]-2-(2,2,2-trifluoroethyl)-3,4-dihydroisoquinolin-1-one] | 100 to 1000 | 100 to 1000
COc1cc(-c2cnc3cc(OC[C@H]4COCCO4)ccn23)cc2c1C(=O)N(CC(F)(F)F)CC2 [Cpd 86, 6-[7-[[(2R)-1,4-dioxan-2-yl]methoxy]imidazo[1,2-a]pyridin-3-yl]-8-methoxy-2-(2,2,2-trifluoroethyl)-3,4-dihydroisoquinolin-1-one] | 100 to 1000 | 100 to 1000
COc1cc(-c2cnc3cc(OCC4(F)CN(C)C4)ccn23)cc2c1C(=O)N(CC(F)(F)F)CC2 [compound 252, 6-[7-[(3-fluoro-1-methyl-azetidin-3-yl)methoxy]imidazo[1,2-a]pyridin-3-yl]-8-methoxy-2-(2,2,2-trifluoroethyl)-3,4-dihydro isoquinolin-1-one] | 100 to 1000 | 100 to 1000

Results, then the compound that gave them:

EC50 [1] [nM] | EC50 [2] [nM] | SMILES
100 to 1000 | 100 to 1000 | COc1cc(-c2cnc3cc(OCCCN4CC5(COC5)C4)ccn23)cc(OC(F)F)c1C(=O)NC1CC1 [compound 273, N-cyclopropyl-2-(difluoromethoxy)-6-methoxy-4-[7-[3-(2-oxa-6-azaspiro[3.3]heptan-6-yl)propoxy]imidazo[1,2-a]pyridin-3-yl]benzamide]
100 to 1000 | 100 to 1000 | COc1cc(-c2cnc3cc(OCCCN4CCC4)ccn23)cc(OC(F)F)c1C(=O)NC1CC1 [compound 274, 4-[7-[3-(azetidin-1-yl)propoxy]imidazo[1,2-a]pyridin-3-yl]-N-cyclopropyl-2-(difluoromethoxy)-6-methoxy-benzamide]
100 to 1000 | 100 to 1000 | COc1cc(-c2cnc3cc(OCCN4CCOC[C@H]4C)ccn23)cc2c1C(=O)N(CC(F)(F)F)CC2 [compound 259, 8-methoxy-6-[7-[2-[(3R)-3-methylmorpholin-4-yl]ethoxy]imidazo[1,2-a]pyridin-3-yl]-2-(2,2,2-trifluoroethyl)-3,4-dihydroisoquinolin-1-one]
100 to 1000 | 100 to 1000 | COc1cc(-c2cnc3cc(OC[C@@H]4COCCO4)ccn23)cc2c1C(=O)N(CC(F)(F)F)CC2 [compound 225, 6-[7-[[(2S)-1,4-dioxan-2-yl]methoxy]imidazo[1,2-a]pyridin-3-yl]-8-methoxy-2-(2,2,2-trifluoroethyl)-3,4-dihydroisoquinolin-1-one]
100 to 1000 | 100 to 1000 | COc1cc(-c2cnc3cc(OCC4(C)CN(C)C4)ccn23)cc(OC(F)F)c1C(=O)NC1CC1 [compound 220, N-cyclopropyl-2-(difluoromethoxy)-4-[7-[(1,3-dimethylazetidin-3-yl)methoxy]imidazo[1,2-a]pyridin-3-yl]-6-methoxy-benzamide]
0.1 to 100 | 100 to 1000 | COc1cc(-c2cnc3cc(OCC(O)CN4CCOCC4)ccn23)cc(OC(F)F)c1C(=O)NC1CC1 (stereo not shown) [Cpd 330, N-cyclopropyl-2-(difluoromethoxy)-4-[7-(2-hydroxy-3-morpholino-propoxy)imidazo[1,2-a]pyridin-3-yl]-6-methoxy-benzamide]
